Assay results taken from patent publication US20110207807A1, “NEW USE FOR HOMOISOFLAVONE OR A SALT THEREOF” (Catholic University Industry Academy Cooperation Foundation, priority 2008, published 2011).

Columns and labels:
NF-κB = test: UV-induced NF-κB nuclear translocation in HaCaT cells (immunocytochemical staining); type: cell-based, human; settings: 1 μg/mL, UV 100 J/m^2, 4 hours (FIG. 2e)
Method: In order to investigate whether the transcription factor NF-κB is activated, human keratinocytes HaCaT cells were immunocytochemically stained as follows.
After inoculating the cells on a 14-mm culture slide, the cells were cultured in DMEM containing 10% FBS for 24 hour. Then, the cells were starved by culturing for 24 hours in DMEM containing 1% FBS. Then, after treating with homoisoflavanone at 1 μg/mL for 1 hour, the cells were washed 3 times with PBS and irradiated with UV at 100 J/m^2. Immediately after the UV radiation, the cells were washed again with PBS and further cultured for 4 hours in DMEM containing 1% FBS while treating with homoisoflavanone at the same concentration. Then, the cells were fixed with methanol for 5 minutes and then subjected to immunocytochemical staining.
The fixed cells were blocked with 10% normal goat serum and then washed 3 times with PBS. Then, after fluorescence staining NF-κB using rabbit anti-NF-κB antibody (SantaCruz, USA) and Alexa 488-conjugated anti-rabbit IgG secondary antibody (Invitrogen, USA), counter staining was carried out using Hoechst (Sigma, St. Louis, Mo.).

IL-6 [1] = test: UV-induced IL-6 mRNA expression in HaCaT cells (real-time PCR); type: cell-based, human; settings: 1 μg/mL, UV 100 J/m^2, compared to control group (FIG. 3)
Method: 1×10^6 HaCaT cells were inoculated on a 100-mm culture dish and cultured in DMEM containing 10% FBS for 24 hour. Then, the cells were starved by culturing for 24 hours in DMEM containing 1% FBS. Then, after treating with homoisoflavanone at 1 μg/mL for 1 hour, the cells were washed 3 times with PBS and irradiated with UV at 100 J/m^2 to induce increase of cytokines. Immediately after the UV radiation, the cells were washed again with PBS and further cultured for 2 or 5 hours in DMEM containing 1% FBS which had been treated with homoisoflavanone at the same concentration.
After extracting RNA from the cells of each test group using TRIzol (Invitrogen, USA), cDNA was prepared by carrying out PCR (PTC-225 Peltier thermal cycler, MJ Research, USA). Then, the mRNA expression of IL-6, IL-8 and TNF-α was measured through real-time PCR (Roter Gene 6000 series, Corbett Research, Australia) using the cDNA as template and using commercially available IL-6, IL-8 and TNF-α primers. The expression level of the pro-inflammatory cytokines was compared relative to the non-treated group.

IL-6 [2] = test: IL-6 mRNA expression induced by PMA and A23187 in HMC-1 (real-time PCR); type: cell-based, human; settings: HMC-1, 2 μg/mL, 50 nM PMA + 1 μM A23187, 5 hours (FIG. 6c)
Method: In order to investigate the effect of homoisoflavanone on the release of pro-inflammatory cytokines induced by phorbol 12-myristate 13-acetate and A23187 in HMC-1, 5×10^5 HMC-1 cells were inoculated on a 60-mm culture dish and cultured in IMDM containing 10% FBS for 48 hours. Then, after treating with homoisoflavanone at 2 μg/mL, the cells were treated with 50 nM phorbol 12-myristate 13-acetate and 1 μM A23187 to induce release of pro-inflammatory cytokines, and then further cultured for 5 hours.
After extracting RNA from the cells of each test group using TRIzol, cDNA was prepared by carrying out PCR using the RNA as a template. Then, the mRNA expression of IL-6 and IL-8 was measured through real-time PCR using the cDNA as template and using commercially available IL-6 and IL-8 primers. The expression level of the pro-inflammatory cytokines was compared relative to the non-treated group.

COX-2 = COX-2 expression induced by PMA and A23187 in human mast cells (Western blot); type: cell-based; settings: HMC-1, homoisoflavanone 2 μg/mL or celecoxib 60 μM, 50 nM PMA + 1 μM A23187, 21 hours (FIG. 7a)
Method: In order to investigate the effect of homoisoflavanone on COX-2 expression induced by phorbol 12-myristate 13-acetate and A23187 in human mast cells, 1×10^6 HMC-1 cells were inoculated on a 100-mm culture dish and cultured in IMDM containing 10% FBS for 48 hours.

ERK = ERK phosphorylation induced by PMA and A23187 in HMC-1 (Western blot); type: cell-based, human; settings: HMC-1, 2 μg/mL, 50 nM PMA + 1 μM A23187, 30 minutes (FIG. 7c)
Method: 1×10^6 HMC-1 cells were inoculated on a 100-mm culture dish and cultured in IMDM containing 10% FBS for 48 hours. […] Then, Western blotting was carried out in the same manner as in Example 2-1 except for using rabbit anti-p-cytosolic phospholipase A2 (cPLA2) antibody, rabbit anti-cPLA2 antibody, rabbit anti-ERK antibody and rabbit anti-p-ERK antibody (Cell Signaling) and using anti-rabbit IgG-HRP conjugation antibody (Zymed) as secondary antibody.

HMC-1 cells = test: Histamine release during degranulation of HMC-1 (histamine enzyme assay kit); type: cell-based, human; settings: HMC-1, 2 μg/mL, 50 nM PMA + 1 μM A23187 (FIG. 8b)
Method: In order to investigate the effect of homoisoflavanone on COX-2 expression induced by phorbol 12-myristate 13-acetate and A23187 in HMC-1, 1×10^5 HMC-1 cells were inoculated on a 6-well plate and cultured in IMDM containing 10% FBS for 48 hours. Then, after treating with homoisoflavanone at 2 μg/mL for 1 hour, the cells were treated with 50 nM phorbol 12-myristate 13-acetate and 1 μM A23187 to induce COX-2 expression, and then further cultured for 6 hours. Then, the cells were fixed with 2.5% glutaraldehyde and frozen with liquid nitrogen. The cells were detached from the plate by applying heat, sliced into […], attached on grids, and observed with a transmission electron microscope (TEM).
In order to measure histamine released during the degranulation, the cell supernatant was collected and subjected to measurement using a histamine enzyme assay kit (Cayman, USA) according to the manufacturer's instructions. First, the collected supernatant was anti-histamine derivatized and reacted with histamine-AChE tracer. Then, after washing at least 5 times followed by visualization for 60-90 minutes, absorbance was measured at 414 nm.

Compound: COc1ccc(CC2COc3cc(O)cc(O)c3C2=O)cc1O (stereo not drawn) [homoisoflavanone]
- migration of NF-κB into the nucleus induced by UV radiation (NF-κB): inhibits
- expression of IL-6 (mRNA) induced by UV (IL-6 [1]): decreased expression
- inhibition of release (mRNA expression) of IL-6 (IL-6 [2]): 50%
- inhibition of COX-2 expression (COX-2): 80%
- ERK phosphorylation (ERK): no effect
- inhibition of release of histamine (HMC-1 cells): 72%
